Experimental data reported in patent publication US6350859B1, “Class BI and CI scavenger receptors” (Massachusetts Institute of Technology, priority 1994, dated 2002).

Biological target: T1, haSR-BI (Cricetulus griseus, UniProt Q60417)
T1 construct: expressed in transfected cells
T1 sequence (Q60417 1-509): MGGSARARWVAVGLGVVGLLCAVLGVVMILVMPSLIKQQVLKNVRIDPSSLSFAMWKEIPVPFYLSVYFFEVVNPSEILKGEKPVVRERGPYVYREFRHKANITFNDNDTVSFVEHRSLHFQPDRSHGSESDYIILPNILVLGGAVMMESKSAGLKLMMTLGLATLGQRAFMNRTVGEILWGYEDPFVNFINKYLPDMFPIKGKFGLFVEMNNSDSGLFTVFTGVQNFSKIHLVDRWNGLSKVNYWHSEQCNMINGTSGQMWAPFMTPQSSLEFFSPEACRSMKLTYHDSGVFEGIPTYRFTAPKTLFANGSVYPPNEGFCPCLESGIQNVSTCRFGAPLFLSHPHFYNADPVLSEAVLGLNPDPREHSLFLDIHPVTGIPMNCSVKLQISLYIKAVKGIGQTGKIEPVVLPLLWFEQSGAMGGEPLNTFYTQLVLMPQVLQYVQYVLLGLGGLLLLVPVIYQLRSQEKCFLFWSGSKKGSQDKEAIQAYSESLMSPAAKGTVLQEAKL
Test: [3H]-liposome binding at 4° C. to haSR-BI in ldlA[haSR-BI] cells
Set-up: species or system hamster
Conditions: EDTA 1-10 mM
Description: Unilamellar liposomes were made by extrusion through policarbonate membranes (Szoka et al., 1980). Phospholipid liposomes were prepared containing the indicated phospholipid, phosphatidycholine, and free cholesterol in a molar ratio of 1:1:1. The lipids were mixed in chloroform and dried by rotary evaporation for 30 min. For preparation of radiolabeled liposomes, 50-75 μCi of [^3H]DPPC(62 Ci/mmol) were added to the lipid mixtures before drying. The dried lipids were resuspended in 150 mM NaCl, 0.1 mM EDTA, 10 mM HEPES, pH 7.5 (Buffer A). […] The final phospholipid concentration was determined by the method of Bartlett (1959). The average diameters of unlabeled liposomes, which were determined from either two or three independent preparations using light scattering with a Coulter N4 plus light scatterer apparatus (Coulter Electronics Inc., Hialeah, Fla.), were: PS, 105; PC, 114: PA, 125; PE, 129; P1, 113; and SM, 131 nm. The number of phospholipid molecules/PS liposome was calculated as follows. […]
Ligand Binding Assays. […] The cells were then solubilized with […], and radioactivity and protein determinations were made as described above. […] The binding values are expressed as nanograms of bound ^125I-labeled protein or ng of total phospholipids from ^3H-labeled liposomes/milligram of cell protein. […]

## O=C(O)CN(CCN(CC(=O)O)CC(=O)O)CC(=O)O [EDTA]
  effect on PS liposome binding: not inhibited
